Experiments:
SOLNI [1] = experiment: Pre-emergence herbicidal activity on SOLNI (black nightshade); format: in vivo, Solanum nigrum; conditions: lowest tested rate giving 80% or greater inhibition, approx. 14 days after planting and treating, greenhouse
In short: (§1)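 Seeds sown on sterilized fertilized topsoil in pots, covered to level, then compound in 50:50 acetone/water sprayed on soil surface. Greenhouse 30/21 °C day/night, 0.64 cm overhead irrigation, then mist/subirrigation. Percent inhibition vs untreated plants scored ~14 days after treatment; GR80 derived, highest rate typically 1000 g/ha.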

AMARE [2] = experiment: Pre-emergence herbicidal activity on AMARE (redroot pigweed); format: in vivo, Amaranthus retroflexus; conditions: lowest tested rate giving 80% or greater inhibition, approx. 14 days after planting and treating, greenhouse
In short: as §1

DATST [3] = experiment: Pre-emergence herbicidal activity on DATST (jimsonweed); format: in vivo, Datura stramonium; conditions: lowest tested rate giving 80% or greater inhibition, approx. 14 days after planting and treating, greenhouse
In short: as §1

CHEAL [4] = experiment: Pre-emergence herbicidal activity on CHEAL (common lambsquarters); format: in vivo, Chenopodium album; conditions: lowest tested rate giving 80% or greater inhibition, approx. 14 days after planting and treating, greenhouse
In short: as §1

CONAR [5] = experiment: Pre-emergence herbicidal activity on CONAR (field bindweed); format: in vivo, Convolvulus arvensis; conditions: lowest tested rate giving 80% or greater inhibition, approx. 14 days after planting and treating, greenhouse
In short: as §1

POROL [6] = experiment: Pre-emergence herbicidal activity on POROL (common purslane); format: in vivo, Portulaca oleracea; conditions: lowest tested rate giving 80% or greater inhibition, approx. 14 days after planting and treating, greenhouse
In short: as §1

CIRAR [7] = experiment: Pre-emergence herbicidal activity on CIRAR (canada thistle, seedling); format: in vivo, Cirsium arvense; conditions: lowest tested rate giving 80% or greater inhibition, approx. 14 days after planting and treating, greenhouse
In short: as §1

ECHCG [8] = experiment: Pre-emergence herbicidal activity on ECHCG (barnyardgrass); format: in vivo, Echinochloa crus-galli; conditions: lowest tested rate giving 80% or greater inhibition, approx. 14 days after planting and treating, greenhouse
In short: as §1

PANMI [9] = experiment: Pre-emergence herbicidal activity on PANMI (wild proso millet); format: in vivo, Panicum miliaceum; conditions: lowest tested rate giving 80% or greater inhibition, approx. 14 days after planting and treating, greenhouse
In short: as §1

SORHA [10] = experiment: Pre-emergence herbicidal activity on SORHA (johnsongrass, seedling); format: in vivo, Sorghum halepense; conditions: lowest tested rate giving 80% or greater inhibition, approx. 14 days after planting and treating, greenhouse
In short: as §1

SETFA [11] = experiment: Pre-emergence herbicidal activity on SETFA (giant foxtail); format: in vivo, Setaria faberi; conditions: lowest tested rate giving 80% or greater inhibition, approx. 14 days after planting and treating, greenhouse
In short: as §1

PANDI [12] = experiment: Pre-emergence herbicidal activity on PANDI (fall panicum); format: in vivo, Panicum dichotomiflorum; conditions: lowest tested rate giving 80% or greater inhibition, approx. 14 days after planting and treating, greenhouse
In short: as §1

BRAPP [13] = experiment: Pre-emergence herbicidal activity on BRAPP (broadleaf signalgrass); format: in vivo, Brachiaria platyphylla; conditions: lowest tested rate giving 80% or greater inhibition, approx. 14 days after planting and treating, greenhouse
In short: as §1

DIGSA [14] = experiment: Pre-emergence herbicidal activity on DIGSA (large crabgrass); format: in vivo, Digitaria sanguinalis; conditions: lowest tested rate giving 80% or greater inhibition, approx. 14 days after planting and treating, greenhouse
In short: as §1

ABUTH = experiment: Post-emergence herbicidal activity on ABUTH (velvetleaf); format: in vivo, Abutilon theophrasti; conditions: post-emergence spray; lowest tested rate with 80% or greater inhibition; about 14 days after treatment
Source text: (§2) All such uses, and the biological activity enabling such uses, are embraced by the term “herbicidal” herein. Tables 15 and 16 summarize results of tests conducted as described below to determine the pre-emergence herbicidal activity, in the form of a GR80 value, of illustrative compounds of this invention. […] Where herbicidal activity was evident but 80% inhibition was not achieved at the highest rate tested (typically 1000 g/ha), an asterisk (*) is shown in the following tables. Herbicidal activity evident in the form of symptoms of phytotoxicity, in the absence of at least 80% inhibition at any rate, is indicated in the tables by “phyto”. A blank cell in the following tables indicates no herbicidal or phytotoxic response at any rate tested.
(§3) In another set of tests, the post-emergence activity of compounds of this invention was evaluated on the cool season species listed above. The following procedure was used.
(§4) A pre-prepared topsoil mixture (described above) was placed in a pot and compacted to a depth of 1.0 to 1.25 cm from the top of the pot. Seeds of each of several monocotyledonous and dicotyledonous annual plant species were placed on top of the soil The seeds were covered with a mixture of 50% topsoil and 50% Rediearth™ in sufficient quantity to level-fill the pots. The pots were then placed on a greenhouse bench and subirrigated as needed until plants growing from the seeds had emerged and reached a suitable growth stage for post-emergence treatment, typically 9 to 14 days after planting.
(§5) A known amount of each test compound dissolved or suspended in an appropriate organic solvent was diluted with a 50:50 mix of acetone and water and applied to the plants by spraying with a standard spray nozzle in a spray volume of 3,100 l/ha at a spray pressure of […] (30 psig). Control plants were not sprayed.
(§6) After treatment the plants were placed in a greenhouse with a 30/21° C. day/night temperature regime and were subsequently watered as needed for growth. Approximately 14 days after treatment, the plants were observed and herbicidal efficacy recorded as percent inhibition by comparison with control plants.

SOLNI [15] = experiment: Post-emergence herbicidal activity on SOLNI (black nightshade); format: in vivo, Solanum nigrum; conditions: post-emergence spray; lowest tested rate with 80% or greater inhibition; about 14 days after treatment
Source text: as §2, §3, §4, §5, §6

AMARE [16] = experiment: Post-emergence herbicidal activity on AMARE (redroot pigweed); format: in vivo, Amaranthus retroflexus; conditions: post-emergence spray; lowest tested rate with 80% or greater inhibition; about 14 days after treatment
Source text: as §2, §3, §4, §5, §6

DATST [17] = experiment: Post-emergence herbicidal activity on DATST (jimsonweed); format: in vivo, Datura stramonium; conditions: post-emergence spray; lowest tested rate with 80% or greater inhibition; about 14 days after treatment
Source text: as §2, §3, §4, §5, §6

CHEAL [18] = experiment: Post-emergence herbicidal activity on CHEAL (common lambsquarters); format: in vivo, Chenopodium album; conditions: post-emergence spray; lowest tested rate with 80% or greater inhibition; about 14 days after treatment
Source text: as §2, §3, §4, §5, §6

CONAR [19] = experiment: Post-emergence herbicidal activity on CONAR (field bindweed); format: in vivo, Convolvulus arvensis; conditions: post-emergence spray; lowest tested rate with 80% or greater inhibition; about 14 days after treatment
Source text: as §2, §3, §4, §5, §6

POROL [20] = experiment: Post-emergence herbicidal activity on POROL (common purslane; table head prints PORAL); format: in vivo, Portulaca oleracea; conditions: post-emergence spray; lowest tested rate with 80% or greater inhibition; about 14 days after treatment
Source text: as §2, §3, §4, §5, §6

CIRAR [21] = experiment: Post-emergence herbicidal activity on CIRAR (canada thistle, seedling); format: in vivo, Cirsium arvense; conditions: post-emergence spray; lowest tested rate with 80% or greater inhibition; about 14 days after treatment
Source text: as §2, §3, §4, §5, §6

ECHCG [22] = experiment: Post-emergence herbicidal activity on ECHCG (barnyardgrass); format: in vivo, Echinochloa crus-galli; conditions: post-emergence spray; lowest tested rate with 80% or greater inhibition; about 14 days after treatment
In short: (§7)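 Seedlings 9–14 days after planting were sprayed with compound in 50:50 acetone/water at 3,100 l/ha and 511 kPa, with unsprayed controls. Plants were then held in a greenhouse at 30/21° C. day/night. Percent inhibition versus controls was scored about 14 days after treatment.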

PANMI [23] = experiment: Post-emergence herbicidal activity on PANMI (wild proso millet); format: in vivo, Panicum miliaceum; conditions: post-emergence spray; lowest tested rate with 80% or greater inhibition; about 14 days after treatment
SORHA [24] = experiment: Post-emergence herbicidal activity on SORHA (johnsongrass, seedling); format: in vivo, Sorghum halepense; conditions: post-emergence spray; lowest tested rate with 80% or greater inhibition; about 14 days after treatment
In short: as §7

SETFA [25] = experiment: Post-emergence herbicidal activity on SETFA (giant foxtail); format: in vivo, Setaria faberi; conditions: post-emergence spray; lowest tested rate with 80% or greater inhibition; about 14 days after treatment
In short: as §7

PANDI [26] = experiment: Post-emergence herbicidal activity on PANDI (fall panicum); format: in vivo, Panicum dichotomiflorum; conditions: post-emergence spray; lowest tested rate with 80% or greater inhibition; about 14 days after treatment
In short: as §7

SORVU = experiment: Post-emergence herbicidal activity on SORVU (shattercane); format: in vivo, Sorghum vulgare; conditions: post-emergence spray; lowest tested rate with 80% or greater inhibition; about 14 days after treatment
In short: as §7

BRAPP [27] = experiment: Post-emergence herbicidal activity on BRAPP (broadleaf signalgrass); format: in vivo, Brachiaria platyphylla; conditions: post-emergence spray; lowest tested rate with 80% or greater inhibition; about 14 days after treatment
In short: as §7

DIGSA [28] = experiment: Post-emergence herbicidal activity on DIGSA (large crabgrass); format: in vivo, Digitaria sanguinalis; conditions: post-emergence spray; lowest tested rate with 80% or greater inhibition; about 14 days after treatment
dicotyledonous species = experiment: Greenhouse post-emergence test in combination with glyphosate, dicotyledonous species; format: in vivo; conditions: glyphosate isopropylammonium salt alone at 1000 g a.e./ha
Source text: as §4, §5, §6
(§8) In a greenhouse post-emergence test conducted according to the procedure described hereinabove, R-2-fluoro-3-trifluoromethyl-N-[1-methyl-2-(3-trifluoromethyl)phenylcarbonylamino]ethylbenzamide (the compound of Example 13) was applied at 0, 64, 125 and 250 g/ha in combination with glyphosate isopropylammonium salt at 1000 g a.e./ha. The glyphosate herbicide alone gave 72% control of dicotyledonous species and 84% control of monocotyledonous species. […] At 250 g/ha, addition of the compound of Example 13 gave 93% control of dicotyledonous species, but reduced control of monocotyledonous species to 73%.

monocotyledonous species = experiment: Greenhouse post-emergence test in combination with glyphosate, monocotyledonous species; format: in vivo; conditions: glyphosate isopropylammonium salt alone at 1000 g a.e./ha
Source text: as §4, §5, §6, §8

Molecule: C[C@H](CNC(=O)c1cccc(C(F)(F)F)c1)NC(=O)Oc1ccc(F)cc1 [Example 230]
- Pre-emergence activity (GR80) on SOLNI (SOLNI [1]): * (Where herbicidal activity was evident but 80% inhibition was not achieved at the highest rate tested (typically 1000 g/ha), an asterisk (*) is shown)
- Pre-emergence activity (GR80) on AMARE (AMARE [2]): 500 g/ha
- Pre-emergence activity (GR80) on DATST (DATST [3]): 750 g/ha
- Pre-emergence activity (GR80) on CHEAL (CHEAL [4]): 1000 g/ha
- Pre-emergence activity (GR80) on CONAR (CONAR [5]): phyto
- Pre-emergence activity (GR80) on PORAL (POROL [6]): 500 g/ha
- Pre-emergence activity (GR80) on CIRAR (CIRAR [7]): 750 g/ha
- Pre-emergence activity (GR80) on ECHCG (ECHCG [8]): phyto
- Pre-emergence activity (GR80) on PANMI (PANMI [9]): phyto
- Pre-emergence activity (GR80) on SORHA (SORHA [10]): phyto
- Pre-emergence activity (GR80) on SETFA (SETFA [11]): * (Where herbicidal activity was evident but 80% inhibition was not achieved at the highest rate tested (typically 1000 g/ha), an asterisk (*) is shown)
- Pre-emergence activity (GR80) on PANDI (PANDI [12]): 1000 g/ha
- Pre-emergence activity (GR80) on BRAPP (BRAPP [13]): phyto
- Pre-emergence activity (GR80) on DIGSA (DIGSA [14]): 750 g/ha
- Post-emergence activity (GR80) ABUTH (ABUTH): [empty]
- Post-emergence activity (GR80) SOLNI (SOLNI [15]): [empty]
- Post-emergence activity (GR80) AMARE (AMARE [16]): phyto
- Post-emergence activity (GR80) DATST (DATST [17]): phyto
- Post-emergence activity (GR80) CHEAL (CHEAL [18]): phyto
- Post-emergence activity (GR80) CONAR (CONAR [19]): phyto
- Post-emergence activity (GR80) PORAL (POROL [20]): phyto
- Post-emergence activity (GR80) CIRAR (CIRAR [21]): [empty]
- Post-emergence activity (GR80) ECHCG (ECHCG [22]): [empty]
- Post-emergence activity (GR80) PANMI (PANMI [23]): [empty]
- Post-emergence activity (GR80) SORHA (SORHA [24]): [empty]
- Post-emergence activity (GR80) SETFA (SETFA [25]): [empty]
- Post-emergence activity (GR80) PANDI (PANDI [26]): [empty]
- Post-emergence activity (GR80) SORVU (SORVU): [empty]
- Post-emergence activity (GR80) BRAPP (BRAPP [27]): [empty]
- Post-emergence activity (GR80) DIGSA (DIGSA [28]): phyto

Molecule: glyphosate isopropylammonium salt [reference compound]
- control of dicotyledonous species (dicotyledonous species): 72%
- control of monocotyledonous species (monocotyledonous species): 84%
